Data on 11 molecules can be found in patent publication US5270310A, “N-aminoalkyl amide inhibitors of protein kinase C” (Sphinx Pharmaceuticals Corporation, priority 1991, dated 1993).

Like-named read-outs stand apart in the source and are kept apart here.

One assay has as its target protein kinase C (PKC). The assay is described as follows: Protein Kinase C Inhibition. Format: biochemical, rat. How it is done: The protein kinase C (PKC) assay is designed to duplicate the in vivo conditions required for protein kinase C function. Therefore, pH, salt and cofactor concentrations are similar to physiologic levels. Histone H1 (lysine rich) is used in the assay as the phosphorylation acceptor protein because it is readily available and serves as a good substrate for protein kinase C. The enzyme is prepared from rat brain and is purified to apparent homogeneity as determined by a single band on silver stained SDS-polyacrylamide. Studies on the mechanism of regulation of protein kinase C by phospholipids, DAG and Ca^+2 have been hampered by the physical properties of the lipid cofactors. In the screening assay, phosphatidylserine (PS) and DAG are co-sonicated to form unilamellar and multilamellar vesicles. The concentration of lipids in the assay are suboptimal to maximize the detection potential of the assay for inhibitors. […] The assay is started with the addition of enzyme and stopped after 10 min by the addition of 25% trichloroacetic acid (TCA) and 1.0 mg/ml bovine serum albumin (BSA). The radioactive histone product is retained and washed on glass fiber filters that allow the unreacted ^32 P-ATP to pass through. The amount of phosphorylation is determined by the radioactivity measured in a scintillation counter. Controls are included in every assay to measure background activity in the absence of enzyme, activity in the absence of lipids and the maximum enzyme activity with saturating levels of the activator lipids.
Both the free base and the HCl salt were tested.

For assay [1], the target named is T1, protein kinase (PKA), catalytic subunit (Homo sapiens, UniProt P17612).
T1 construct: purchased Sigma Chemical Company, St. Louis, Mo
The assay is described as follows: cAMP-Dependent Protein Kinase (PKA) Assay. Format: biochemical. The conditions noted are these: free base. The method, then: Compound found to be inhibitors of protein kinase C are tested for inhibitory activity against protein kinase (PKA). This enzyme, like protein kinase C, plays an important role in cell-cell communication and is activated by a second messenger, cAMP. Secondary screening against PKA is useful for ascertaining the selectivity of the compounds of the invention. The catalytic subunit of PKA (Sigma Chemical Company, St. Louis, Mo.) is mixed with buffer before addition of the inhibitor in dimethylsulfoxide (DMSO). The assay is started by the addition of 32P-ATP and the reaction is allowed to proceed for 10 min before stopping with 25% trichloroacetic acid (TCA) and 1.0 mg/ml bovine serum albumin (BSA). The phosphorylated protein is isolated by filtration and the radioactivity is counted in a beta scintillation counter.

Assay [2] has as its system NHEK cells (proliferating keratinocytes). As to the kind of experiment: Human Keratinocyte Inhibition. Format: cell-based. The conditions noted are these: 3H-thymidine incorporation. How it is done: Proliferating keratinocytes (NHEK cells purchased from Clonetics, Inc., San Diego, Calif.) in second passage were grown in Keratinocyte Growth Medium (KGM) (Clonetics, Inc.) Cells are trypsinized (0.025% trypsin, Clonetics), counted with a hemacytometer (Scientific Products), and seeded at a concentration of 2,500 cells/well in a 96 well microtiter plate. After allowing cells to attach to the surface overnight, the culture medium is aspirated and replaced with 100 μl of fresh KGM. […] IC50 is the concentration of test compound required to inhibit fifty percent of the incorporation of ^3 H-thymidine into proliferating cells not exposed to test agent.

Assay [3] relates to PMA-stimulated neutrophils. As to the kind of experiment: Neutrophil Superoxide Anion (O2^-) Release Assay. The format is cell-based, human. The following applies: for IC50: Homo sapiens, Neutrophil, PMA-stimulated; for inhibit O2^- production by PMA-stimulated neutrophils: result in words. The method, then: Neutrophils are isolated form whole blood collected from human volunteers. All reagent materials are obtained from Sigma Chemical Company with the exception of isotonic saline (Travenol Laboratories, Inc., Deerfield, Ill.) and lymphocyte separation medium (Organon Teknika, Durham, N.C.).
Whole blood is drawn and mixed with sodium heparin (final conc. 10 units/ml) to prevent clotting. An equal volume of dextran (3.0%) in isotonic saline is added, mixed, and allowed to settle for 30 min to bind red blood cells (RBC). Supernatant is removed, underlayered with lymphocyte separation medium and centrifuged for 40 min at 400 xg in a centrifuge (Beckman GPR, Norcross, Ga). The pellet is alternately resuspended in 0.2% and 1.6% NaCl to lyse RBCs before washing with Hank's Balanced Salt Solution (HBSS). The washed pellet is resuspended in 10 mL HBSS and placed on ice before counting on a hemacytometer.
The neutrophil cell concentration is adjusted to 2×10^6 cells/ml with HBSS before adding 0.8 mL cells to 12×75 mm polypropylene test tubes (Fisher Scientific). Test agents are diluted to determine dose response and added at 10× final concentration at a volume of 0.1 mL/tube in duplicate. Then 10× concentrations of cytochrome C (15 mg/ml) with catalase (3000 units/ml) either alone or containing 25 ng/ml phorbol 12-myristate 13-acetate (PMA) are added at a volume of 0.1 mL/tube and incubated at 37° C. for 30 min before stopping the reaction by placing tubes on ice. Tubes are then centrifuged at 900 xg for 10 min, 0.5 mL supernatant is removed and added to 0.5 mL H2 O in a microcuvette. Optical density (OD) of cytochrome c is read in a spectrophotometer (Shimadzu) at 550 nm. The ΔOD of cytochrome c is obtained between PMA-stimulated and non-stimulated tubes, and the dose responses of the test agents are compared to the positive controls (which contain HBSS in place of test agents). PMA stimulates O2^- production which reduces cytochrome c. Reducing cytochrome c increases its absorbance, and the change in OD of cytochrome c is proportional to the amount of O2^- produced by PMA stimulation. Inhibition of the O2^- burst by test compounds of the invention is seen as a reduction in the change in optical density. Inhibition is expressed as IC50 μM and is the amount of test compound that will inhibit fifty percent of the PMA-stimulated respiratory outburst, i.e. O2^- production.

Assay [4] deals with MCF-7 human breast tumor cell line. The assay is described as follows: Human Tumor Cell Growth Inhibition, MCF-7. Format: cell-based. The conditions noted are these: for IC50: Homo sapiens, MCF7, 3H-thymidine incorporation, value outside parentheses (not salt); for inhibit growth of MCF-7 cells: result in words. The method, then:
MCF-7 a human breast tumor cell line and MCF-7/ADR an adriamycin resistant line of MCF-7 cells were obtained from the National Cancer Institute, Frederick, Md. […] Human tumor cells are trypsinized (0.05% trypsin, GIBCO), counted with a hemacytometer and seeded at a concentration of 10,000 cells/well in a 96 well microtiter plate. After allowing cells to attach to the surface overnight, the culture medium is aspirated and replaced with 100 μl of fresh medium. Test agents are diluted to determine dose response at 2× final concentration and added in quadruplicate at 100 μl/well to bring the total volume of each well to 200 μl. The microtiter plate is then incubated at 37° C. 5% CO2 overnight (18-24 hrs) before ^3 H-thymidine is added at a concentration of 0.5 μCi/well in 50 μl culture medium. The plate is incubated again for 4 hrs under the same conditions as above. Supernatant is then aspirated and 50 μl trypsin (0.05%, GIBCO) is added to each well. Cells are checked microscopically to determine detachment from surfaces, and plates are then harvested with a cell harvester (PHD, Cambridge Technology, Inc.) Filter papers corresponding to wells are placed in scintillation vials and counted to determine the amount of ^3 H-thymidine incorporated by the cells. Test agent response is compared to a positive control of cell wells with culture media only to determine the IC50. IC50 is the concentration of test compound required to inhibit fifty per cent of the incorporation of ^3 H-thymidine into proliferating cells not exposed to test agent. Uptake of ^3 H-thymidine is a standard test for measuring the metabolism of cells. Cells which are actively proliferating take up ^3 H-thymidine, whereas cells that are not proliferating take up ^3 H-thymidine at much slower rates or not at all. Test agents that inhibit the uptake of ^3 H-thymidine thus slow the growth of cells.

Assay [5] shares this test system. The assay is described as follows: Human Tumor Cell Growth Inhibition, MCF-7. The format is cell-based. The conditions noted are these: MCF7, 3H-thymidine incorporation, value in parentheses: salt.
Setting [6] is: value outside parentheses (not salt), read-out: NHEK IC50.
The mark [7] stands for this setting: value outside parentheses (not salt), read-out: Neutrophil Superoxide Release IC50.
[8] abbreviates: value in parentheses: salt, read-out: NHEK IC50 (salt).
Where [9] appears, read: value in parentheses: salt, read-out: Neutrophil Superoxide Release IC50 (salt).

Take `CCCCCCCCCCCCCCCC(=O)NCCCN(CC)CC` [Compound 10, N,N-Diethyl-N'-hexadecanoyl-1,3-propanediamine]: the concentration for half-maximal inhibition (IC50) is 131 µM at protein kinase C (PKC) (free base), > 218 µM in assay [1] and 1.56 µM in assay [2] (setting [6]).

Turning to `CCCCCCCCCCCCCCCCN(CCCN(C)C)C(C)=O` [Compound 20, N-Acetyl-N-hexadecyl-N',N'-dimethyl-1,3-propanediamine], the IC50 at protein kinase C (PKC) (HCl salt) was determined as 44 µM; against protein kinase C (PKC) (free base), 69 µM; in assay [1], 67 µM; in assay [2] (setting [6]), 1.3 µM; in assay [3] (setting [7]), 1.1 µM.

As to `CCCCCCCCCCCCCCCC(=O)N(CCC[N+]1(C)CCOCC1)Cc1ccccc1` [Compound 22], the IC50 against protein kinase C (PKC) (free base) was 45 µM; in assay [1] it was < 44 µM; in assay [4], 15.4 µM; in assay [2] (setting [6]), 1.6 µM.

`CCCCCCCCCCCCCCCC(=O)N(C)CCN(C)C` [Compound 25, N,N,N'-Trimethyl-N'-hexadecanoyl-1,3-ethanediamine]: the IC50 at protein kinase C (PKC) (HCl salt) is 100 µM; against protein kinase C (PKC) (free base) it was 92 µM; in assay [1], > 218 µM.

Regarding `CCCCCCCCCCCCCCCC(=O)NCCC[N+](C)(C)C` [Compound 15, N-Hexadecanoyl-3-trimethylammoniumpropylamine iodide], the figures for the IC50 (at protein kinase C (PKC) (free base); in assay [4]; in assay [2] (setting [6])) were 24 µM, 5 µM and 3.3 µM, respectively.

In the case of `CCCCCCCCCCCCCCCC(=O)N(CCCN(C)C)C(C)C` [Compound 9, N,N-Dimethyl-N'-(2-propyl)-N'-hexadecanoyl-1,3-propanediamine], the IC50 was found to be 130 µM on protein kinase C (PKC) (HCl salt); 146 µM against protein kinase C (PKC) (free base); 172 µM in assay [1]; 5.1 µM in assay [4]; 0.14 µM in assay [2] (setting [6]); 0.9 µM in assay [3] (setting [7]).

In the case of `CCCCCCCCCCCCCCCC(=O)N(C)CCN(C)C` [Compound 3], the values for the half-inhibitory concentration (IC50) at protein kinase C (PKC) (HCl salt) and against protein kinase C (PKC) (free base) were 66 µM and 40 µM, respectively.

As for `CCCCCCCCCCCCCCCC(=O)N(CCC)CCCN(C)C` [Compound 8, N,N-Dimethyl-N'-hexadecanoyl-N'-propyl-1,3-propanediamine], the half-maximal inhibitory concentration (IC50) on protein kinase C (PKC) (HCl salt) is 48 µM; against protein kinase C (PKC) (free base), 131 µM; in assay [1] it was > 218 µM; in assay [4] it was 9.7 µM; in assay [2] (setting [6]) it was 1.03 µM; in assay [3] (setting [7]), 2.9 µM.

On to `CCCCCCCCCCCCCCCC(=O)N(C)CCCN(C)C` [Compound 4, N-Hexadecanoyl-N,N',N'-trimethyl-1,3-propanediamine], for which the IC50 is 57 µM on protein kinase C (PKC) (HCl salt); 107 µM against protein kinase C (PKC) (free base); 90 µM in assay [1]; 1.5 µM in assay [4]; 2.4 µM in assay [2] (setting [8]); 0.8 µM in assay [2] (setting [6]). In addition, the results for the IC50 in assay [3] (setting [9]), in assay [3] (setting [7]) and in assay [5] were 2.39 µM, 45 µM and 2.9 µM, respectively. Besides, the “inhibit growth of MCF-7 cells” value in assay [4] was “effectively inhibit growth of MCF-7 cells at micromolar concentrations”. Further, the “inhibit O2^- production by PMA-stimulated neutrophils” value in assay [3] (HCl salt) and in assay [3] (compound itself) was “inhibit O2^- production by PMA-stimulated neutrophils at micromolar concentrations” in each case.

In the case of `CCCCCCCCCCCCCCCC(=O)NCCCN(C)C` [Compound 6, N,N-Dimethyl-N'hexadecanoyl-1,3-propanediamine], the concentration for half-maximal inhibition (IC50) at protein kinase C (PKC) (HCl salt) worked out at 50 µM; at protein kinase C (PKC) (free base), 50 µM; in assay [1], 140 µM; in assay [4], 4.5 µM; in assay [2] (setting [8]), 0.78 µM; in assay [3] (setting [9]), 2.8 µM. For the same molecule, the results for the half-maximal inhibitory concentration (IC50) in assay [3] (setting [7]) and in assay [5] were 2.32 µM and 3.5 µM, respectively. Moreover, the “inhibit growth of MCF-7 cells” value in assay [4] is “effectively inhibit growth of MCF-7 cells at micromolar concentrations”. Besides, the “inhibit O2^- production by PMA-stimulated neutrophils” value in assay [3] (HCl salt) and in assay [3] (compound itself) was “inhibit O2^- production by PMA-stimulated neutrophils at micromolar concentrations” in each case.

With `CCCCCCCCCCCCCCCC(=O)N(CC)CCCN(C)C` [Compound 7, N,N-Dimethyl-N'-ethyl-N'-hexadecanoyl-1,3-propanediamine], the IC50 on protein kinase C (PKC) (HCl salt) came to 38 µM; at protein kinase C (PKC) (free base), 50 µM; in assay [1] it was 119 µM.
